Experimental data as given in US20230192622A1, “ANTI-SARS-COV-2 DRUG” (ONCOLYS BIOPHARMA, INC., priority 2020, published 2023).
Read-outs that look alike come from different tables or passages of the source.

Key:
[1] = in vitro; details: African green monkey
[2] = test system: SARS-CoV-2 (WK-521); test: Anti-SARS-CoV-2 effect, assay with VeroE6/TMPRSS2 cells (inhibition of virus-induced cell death, Cell Counting Kit-8); assay type: cell-based; details: for EC50: VeroE6/TMPRSS2 cells, MOI=0.01, 3 days of culture, read-out: EC50: 50% effective concentration (concentration of agent which inhibits cell death induced by SARS-CoV-2 infection by 50%)
[3] = in vitro; details: human
[4] = test system: SARS-CoV-2 (WK-521); test: microbe, parasite or virus in culture; assay type: cell-based; details: Severe acute respiratory syndrome coronavirus 2, HEK-293T, 72 h, HEK293T/ACE2 cells, MOI=0.1, 3 days, qPCR of viral RNA in supernatant; for IC90: read-out: IC50(μM) (footnote defines IC90: 90% inhibitory concentration); for IC50: read-out: IC50: 50% inhibitory concentration (reduces viral production and replication by 50%)
[5] = test system: VeroE6/TMPRSS2 cells; details: African green monkey, 3 days
[6] = test system: VeroE6/TMPRSS2 cells; test: Cytotoxicity in uninfected VeroE6/TMPRSS2 cells (viable cell number, Cell Counting Kit-8); details: read-out: CC50: 50% cytotoxic concentration (concentration of agent which reduces the number of viable cells by 50%), 3 days of culture
[7] = test system: HEK293T/ACE2 cells; details: human, 3 days

Compound	CC50 at 3 days [1]	EC50 [2]	CC50 at 3 days [3]	IC90 [4]	IC50 [4]	other results
CCCCn1c(=O)c2cc(OC)ccc2c2cc(C(O)(C(F)(F)F)C(F)(F)F)ccc21 [KZ12]	> 10 µM	8.8 µM	–	–	–	–
CCCCn1c(=O)c2ccc(OCCO)cc2c2cc(C(O)(C(F)(F)F)C(F)(F)F)ccc21 [NR-04, 5-butyl-2-(1,1,1,3,3,3-hexafluoro-2-hydroxypropan-2-yl)-9-(2-hydroxyethoxy)-phenanthridin-6(5H)-one]	–	–	> 20 µM	3.72 µM	0.489 µM	–
CCCCn1c(=O)c2ccc(OCC(=O)NC)cc2c2cc(C(O)(C(F)(F)F)C(F)(F)F)ccc21 [NR-97]	–	–	> 20 µM	3.27 µM	0.24 µM	–
CCCCn1c(=O)c2cc(O)c(OC3(C)CNC3)cc2c2cc(C(O)(C(F)(F)F)C(F)(F)F)ccc21 [NR-58]	–	–	10.6 µM	4.69 µM	1.04 µM	–
CCCCn1c(=O)c2cccc(OC)c2c2cc(C(O)(C(F)(F)F)C(F)(F)F)ccc21 [KZ33, 5-butyl-2-(1′,1′,1′,3′,3′,3′-hexafluoro-2′-hydroxypropan-2′-yl)-10-methoxy-phenanthridin-6(5H)-one]	> 10 µM	4.1 µM	–	–	–	–
CCCCn1c(=O)c2cc(C)ccc2c2cc(C(O)(C(F)(F)F)C(F)(F)F)ccc21 [KZ24]	–	4.1 µM	–	–	–	CC50 [5]: > 10 µM
CCCCn1c(=O)c2cc(F)c(OCCO)cc2c2cc(C(O)(C(F)(F)F)C(F)(F)F)ccc21 [NR-61]	–	–	19 µM	4.99 µM	1.09 µM	–
CCCCn1c(=O)c2cc(F)c(OCC(O)CO)cc2c2cc(C(O)(C(F)(F)F)C(F)(F)F)ccc21 (centres unmarked) [NR-82]	–	–	14.5 µM	8.57 µM	0.95 µM	–
CCCCn1c(=O)c2cc3c(cc2c2cc(C(O)(C(F)(F)F)C(F)(F)F)ccc21)OC1COCC1O3 (centres unmarked) [NR-84]	–	–	> 20 µM	5.83 µM	1.74 µM	–
CCCCn1c(=O)c2cc(F)c(OCC(N)=O)cc2c2cc(C(O)(C(F)(F)F)C(F)(F)F)ccc21 [NR-63]	–	–	> 20 µM	2.48 µM	0.21 µM	–
CCCCn1c(=O)c2c(OC)cccc2c2cc(C(O)(C(F)(F)F)C(F)(F)F)ccc21 [KZ31, 5-butyl-2-(1′,1′,1′,3′,3′,3′-hexafluoro-2′-hydroxypropan-2′-yl)-7-methoxy-phenanthridin-6(5H)-one]	> 10 µM	3.3 µM	–	–	–	–
CCCCn1c(=O)c2cc(OC3CCOC3)c(OC3CCOC3)cc2c2cc(C(O)(C(F)(F)F)C(F)(F)F)ccc21 (centres unmarked) [NR-67]	–	–	19 µM	> 10 µM	1.32 µM	–
CCCCn1c(=O)c2cc3c(cc2c2cc(C(O)(C(F)(F)F)C(F)(F)F)ccc21)OCO3 [KZ26, 5-butyl-2-(1′,1′,1′,3′,3′,3′-hexafluoro-2′-hydroxypropan-2′-yl)-[1,3] dioxolo[4,5-j] phenanthridin-6(5H)-one]	> 10 µM	2.9 µM	–	–	–	–
CCCCn1c(=O)c2cc3c(cc2c2cc(C(O)(C(F)(F)F)C(F)(F)F)c4c(c21)OCO4)OCO3 [HA-754]	> 10 µM	5 µM	–	–	–	–
CCCCn1c(=O)c2ccc(OC(CO)CO)cc2c2cc(C(O)(C(F)(F)F)C(F)(F)F)ccc21 [NR-46]	–	–	> 20 µM	3.76 µM	0.44 µM	–
CCCCn1c(=O)c2ccccc2c2cc(C(O)(C(F)(F)F)C(F)(F)F)ccc21 [HA-579]	> 10 µM	8.7 µM	–	–	–	–
CCCCn1c(=O)c2cc(OC)ccc2c2cc(C(O)(C(F)(F)F)C(F)(F)F)c(OC)c(OC)c21 [HA-727, 5-butyl-2-(1′,1′,1′,3′,3′,3′-hexafluoro-2′-hydroxypropan-2′-yl)-3,4,8-trimethoxy-phenanthridin-6(5H)-one]	> 10 µM	4.8 µM	–	–	–	–
CCCCn1c(=O)c2cc(OCCO)ccc2c2cc(C(O)(C(F)(F)F)C(F)(F)F)cc(OC)c21 [NR-26]	–	–	> 20 µM	14.8 µM	1.24 µM	–

Compound	CC50 at 3 days [1]	EC50 [2]	CC50 at 3 days [3]	IC90 [4]	IC50 [4]	other results
CCCCn1c(=O)c2cc(F)c(O[C@@H]3COC[C@@H]3O)cc2c2cc(C(O)(C(F)(F)F)C(F)(F)F)ccc21 [NR-65]	–	–	18.2 µM	6.76 µM	0.2 µM	–
CC(C)Cn1c(=O)c2ccccc2c2cc(C(O)(C(F)(F)F)C(F)(F)F)ccc21 [KZ01]	> 10 µM	5.4 µM	–	–	–	–
CCCCn1c(=O)c2ccc(OCC(C)(C)O)cc2c2cc(C(O)(C(F)(F)F)C(F)(F)F)ccc21 [NR-32, 5-butyl-2-(1,1,1,3,3,3-hexafluoro-2-hydroxypropan-2-yl)-9-(2-hydroxy-2-methylpropyloxy)phenanthridin-6(5H)-one]	–	–	> 20 µM	2.34 µM	0.27 µM	–
CCCCn1c(=O)c2cc(O)ccc2c2cc(C(O)(C(F)(F)F)C(F)(F)F)cc(OC)c21 [NR-19]	–	–	> 20 µM	4.44 µM	0.61 µM	–
CCCCn1c(=O)c2ccc(OC)cc2c2cc(C(O)(C(F)(F)F)C(F)(F)F)ccc21 [KZ32, 5-butyl-2-(1′,1′,1′,3′,3′,3′-hexafluoro-2′-hydroxypropan-2′-yl)-9-methoxy-phenanthridin-6(5H)-one]	> 10 µM	1.8 µM	> 20 µM	7.37 µM	1.03 µM	–
CCCCn1c(=O)c2ccccc2c2cc(C(O)(C(F)(F)F)C(F)(F)F)cc(C)c21 [KZ07]	–	3.3 µM	–	–	–	CC50 [5]: > 10 µM
CCCCn1c(=O)c2cc(F)c(OCCNC(C)=O)cc2c2cc(C(O)(C(F)(F)F)C(F)(F)F)ccc21 [NR-62]	–	–	13 µM	7.82 µM	1.28 µM	–
CCCCn1c(=O)c2ccc(O)cc2c2cc(C(O)(C(F)(F)F)C(F)(F)F)ccc21 [YN029, 5-butyl-2-(1′,1′,1′,3′,3′,3′-hexafluoro-2′-hydroxypropan-2′-yl) hydroxyphenanthridin-6(5H)-one]	> 10 µM	1.9 µM	16.9 µM	3.04 µM	0.588 µM	–
5-butyl-2-(1′,1′,1′,3′,3′,3′-hexafluoro-2′-hydroxypropan-2′-yl)-7,8,9-trimethoxy-phenanthridin-6(5H)-one [KZ39]	–	8.6 µM	–	–	–	CC50 [6]: > 10 µM
CCCCn1c(=O)c2cc(F)c(OCCN(C)C)cc2c2cc(C(O)(C(F)(F)F)C(F)(F)F)ccc21 [NR-60]	–	–	6.73 µM	> 10 µM	0.95 µM	–
CCCCn1c(=O)c2ccc(C)cc2c2cc(C(O)(C(F)(F)F)C(F)(F)F)ccc21 [YN033]	–	6 µM	–	–	–	CC50 [5]: > 10 µM
CCCCn1c(=O)c2ccccc2c2cc(C(O)(C(F)(F)F)C(F)(F)F)cc(OC)c21 [KZ08]	> 10 µM	2.9 µM	–	–	–	–
CCCCn1c(=O)c2ccc(OCC(C)=O)cc2c2cc(C(O)(C(F)(F)F)C(F)(F)F)ccc21 [NR-93]	–	–	–	3.27 µM	0.243 µM	CC50 [7]: > 20 µM
CCCCn1c(=O)c2cc(NC(=O)C3CC3)ccc2c2cc(C(O)(C(F)(F)F)C(F)(F)F)ccc21 [NR-51]	–	–	8.4 µM	1.8 µM	0.3 µM	–
CCCCn1c(=O)c2ccccc2c2cc(C(O)(C(F)(F)F)C(F)(F)F)c3c(c21)OCO3 [HA-718, 4-butyl-11-(1′,1′,1′,3′,3′,3′-hexafluoro-2′-hydroxypropan-2′-yl)-[1,3]dioxolo [4,5-c]phenanthridin-5(4H)-one]	> 10 µM	3.1 µM	–	–	–	–
CCCCn1c(=O)c2cc(OC)ccc2c2cc(C(O)(C(F)(F)F)C(F)(F)F)c3c(c21)OCO3 [HA-719, 4-butyl-11-(1′,1′,1′,3′,3′,3′-hexafluoro-2′-hydroxypropan-2′-yl)-7-methoxy-[1,3]dioxolo[4,5-c]phenanthridin-5(4H)-one]	> 10 µM	2.6 µM	–	–	–	cell death due to SARS-CoV-2 infection observed under a microscope (FIG. 2) ([2]; 5 μM of HA-719, VeroE6/TMPRSS2 cells): almost no cell death was observed
CCCCn1c(=O)c2cc(F)c(OC3CCOC3)cc2c2cc(C(O)(C(F)(F)F)C(F)(F)F)ccc21 (centres unmarked) [NR-66]	–	–	13.9 µM	5.66 µM	0.8 µM	–
CCCCn1c(=O)c2cc(F)c(OC3COC3)cc2c2cc(C(O)(C(F)(F)F)C(F)(F)F)ccc21 [NR-80]	–	–	19.1 µM	6.16 µM	0.59 µM	–
